Compound in assay [1]: C=CCNC1=C2C[C@@H](C)C[C@H](OC)[C@H](O)[C@@H](C)/C=C(\C)[C@H](OC(N)=O)[C@@H](OC)/C=C\C=C(/C)C(=O)NC(=CC1=O)C2=O [17-AAG]
The assay can be described thus: surviving fraction relative to DMSO-only wells; higher = less growth inhibition. Conditions: exposure time: 5 days. The essentials: (§1)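 Inhibitors at 0.5, 1, 5, 10, 50, 100, 500 and 1000 nM were applied continuously for five days to tumour cell lines seeded in log phase at 250–500 cells per well in 384-well plates 24 hours earlier. Viability was measured by CellTiter-Glo luminescence and expressed as surviving fraction relative to the median of DMSO-only wells. Luminescence was taken after 10 minutes at room temperature.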

Compound in assay [2]: CN(C)CC[C@H](CSc1ccccc1)Nc1ccc(S(=O)(=O)NC(=O)c2ccc(N3CCN(Cc4ccccc4-c4ccc(Cl)cc4)CC3)cc2)cc1[N+](=O)[O-] [ABT-737]
The description is as above. Conditions: exposure time: 5 days. The essentials:
as §1

± gives the standard deviation of the averaged measurements.

For the test system G292 BONE, the surviving fraction in assay [1] (0.5 nM) is 0.928 ± 0.035; in assay [1] (1 nM), 0.934 ± 0.031; in assay [1] (5 nM), 0.956 ± 0.052; in assay [1] (10 nM), 0.792 ± 0.018; in assay [1] (50 nM) it was 0.295 ± 0.018; in assay [1] (100 nM), 0.266 ± 0.0069. For the same test system, the surviving fraction in assay [1] (500 nM) is 0.0898 ± 0.01; in assay [1] (1000 nM), 0.087 ± 0.004; in assay [2] (0.5 nM), 1.06 ± 0.043; in assay [2] (1 nM), 1.03 ± 0.021; in assay [2] (5 nM), 1.08 ± 0.014; in assay [2] (10 nM) it was 1.02 ± 0.012. For the same test system, the surviving fraction amounted to 1.07 ± 0.022 in assay [2] (50 nM), 1.06 ± 0.024 in assay [2] (100 nM), 1.02 ± 0.019 in assay [2] (500 nM) and 0.904 ± 0.027 in assay [2] (1000 nM).

Take HCC70 BREAST: the surviving fraction in assay [1] (0.5 nM) turned out to be 1.01 ± 0.09; in assay [1] (1 nM), 0.971 ± 0.066; in assay [1] (5 nM), 1.01 ± 0.046; in assay [1] (10 nM), 0.804 ± 0.0083; in assay [1] (50 nM), 0.091 ± 0.017; in assay [1] (100 nM), 0.0907 ± 0.012. The surviving fraction is 0.073 ± 0.017 in assay [1] (500 nM); 0.0667 ± 0.0091 in assay [1] (1000 nM); 1.07 ± 0.044 in assay [2] (0.5 nM); 1.11 ± 0.08 in assay [2] (1 nM); 1.1 ± 0.065 in assay [2] (5 nM); 1.11 ± 0.051 in assay [2] (10 nM). The surviving fraction was determined as 1.06 ± 0.092 in assay [2] (50 nM), 1.03 ± 0.078 in assay [2] (100 nM), 1 ± 0.048 in assay [2] (500 nM) and 0.978 ± 0.032 in assay [2] (1000 nM).

On to HS57T BREAST, for which the surviving fraction turned out to be 0.973 ± 0.08 in assay [1] (0.5 nM); 0.919 ± 0.025 in assay [1] (1 nM); 0.699 ± 0.064 in assay [1] (5 nM); 0.263 ± 0.032 in assay [1] (10 nM); 0.134 ± 0.011 in assay [1] (50 nM); 0.126 ± 0.0038 in assay [1] (100 nM). For the same test system, the surviving fraction in assay [1] (500 nM) worked out at 0.105 ± 0.0035; in assay [1] (1000 nM) it was 0.106 ± 0.0049; in assay [2] (0.5 nM) it was 1.03 ± 0.056; in assay [2] (1 nM), 1.09 ± 0.011; in assay [2] (5 nM) it was 1.08 ± 0.072; in assay [2] (10 nM), 1.11 ± 0.093. Further, the surviving fraction in assay [2] (50 nM) amounted to 1.04 ± 0.01; in assay [2] (100 nM), 1.06 ± 0.066; in assay [2] (500 nM), 0.981 ± 0.039; in assay [2] (1000 nM) it was 0.965 ± 0.018.

For HMT3552 BREAST, the surviving fraction in assay [1] (0.5 nM) is 0.913; in assay [1] (1 nM), 0.915; in assay [1] (5 nM) it was 1.15; in assay [1] (10 nM), 0.904; in assay [1] (50 nM) it was 0.087; in assay [1] (100 nM), 0.064. Moreover, the surviving fraction in assay [1] (500 nM) was found to be 0.056; in assay [1] (1000 nM) it was 0.062; in assay [2] (0.5 nM), 1.01 ± 0.084; in assay [2] (1 nM), 1.02 ± 0.033; in assay [2] (5 nM) it was 1.04 ± 0.035; in assay [2] (10 nM) it was 0.979 ± 0.082. For the same test system, the surviving fraction in assay [2] (50 nM) is 1.1 ± 0.036; in assay [2] (100 nM), 1.23 ± 0.038; in assay [2] (500 nM), 1.03 ± 0.06; in assay [2] (1000 nM), 1.17 ± 0.03.

For the test system HS578T BREAST, the surviving fraction in assay [1] (0.5 nM) was found to be 0.904 ± 0.057; in assay [1] (1 nM), 0.928 ± 0.033; in assay [1] (5 nM), 0.525 ± 0.1; in assay [1] (10 nM), 0.409 ± 0.051; in assay [1] (50 nM), 0.281 ± 0.049; in assay [1] (100 nM), 0.234 ± 0.022. Also, the surviving fraction was found to be 0.213 ± 0.026 in assay [1] (500 nM); 0.222 ± 0.026 in assay [1] (1000 nM); 1.08 ± 0.11 in assay [2] (0.5 nM); 1.37 ± 0.23 in assay [2] (1 nM); 1.26 ± 0.15 in assay [2] (5 nM); 1.24 ± 0.11 in assay [2] (10 nM). The surviving fraction was 1.18 ± 0.073 in assay [2] (50 nM), 1.15 ± 0.15 in assay [2] (100 nM), 0.975 ± 0.021 in assay [2] (500 nM) and 0.955 ± 0.059 in assay [2] (1000 nM).

For the test system HCC38 BREAST, the surviving fraction amounted to 0.802 ± 0.19 in assay [1] (0.5 nM); 0.906 ± 0.26 in assay [1] (1 nM); 0.293 ± 0.082 in assay [1] (5 nM); 0.185 ± 0.067 in assay [1] (10 nM); 0.0753 ± 0.022 in assay [1] (50 nM); 0.0727 ± 0.0085 in assay [1] (100 nM). Besides, the surviving fraction turned out to be 0.059 ± 0.0092 in assay [1] (500 nM); 0.0613 ± 0.0025 in assay [1] (1000 nM); 1.22 ± 0.037 in assay [2] (0.5 nM); 1.23 ± 0.086 in assay [2] (1 nM); 1.3 ± 0.23 in assay [2] (5 nM); 1.31 ± 0.049 in assay [2] (10 nM). For the same test system, the surviving fraction came to 1.21 ± 0.11 in assay [2] (50 nM), 1.26 ± 0.17 in assay [2] (100 nM), 0.873 ± 0.12 in assay [2] (500 nM) and 0.714 ± 0.068 in assay [2] (1000 nM).

Consider HMLE3 BREAST, for which the surviving fraction in assay [1] (0.5 nM) worked out at 0.875 ± 0.029; in assay [1] (1 nM) it was 0.889 ± 0.079; in assay [1] (5 nM), 0.973 ± 0.037; in assay [1] (10 nM) it was 0.925 ± 0.062; in assay [1] (50 nM) it was 0.0453 ± 0.0025; in assay [1] (100 nM), 0.0247 ± 0.0011. In addition, the surviving fraction came to 0.021 ± 0.002 in assay [1] (500 nM); 0.024 ± 0.001 in assay [1] (1000 nM); 1.06 ± 0.073 in assay [2] (0.5 nM); 1.06 ± 0.049 in assay [2] (1 nM); 1.15 ± 0.013 in assay [2] (5 nM); 1.17 ± 0.11 in assay [2] (10 nM). The surviving fraction in assay [2] (50 nM) came out at 1.1 ± 0.13; in assay [2] (100 nM), 1.17 ± 0.12; in assay [2] (500 nM), 1.17 ± 0.13; in assay [2] (1000 nM), 1.22 ± 0.1.

CCK81 LARGE INTESTINE: the surviving fraction in assay [2] (0.5 nM) stood at 0.869 ± 0.15; in assay [2] (1 nM) it was 0.887 ± 0.025; in assay [2] (5 nM), 0.83 ± 0.11; in assay [2] (10 nM), 0.847 ± 0.077; in assay [2] (50 nM), 0.859 ± 0.11; in assay [2] (100 nM), 0.724 ± 0.13. The results for the surviving fraction in assay [2] (500 nM) and in assay [2] (1000 nM) were 0.678 ± 0.071 and 0.695 ± 0.053, respectively.
